Results: PubChem BioAssay (NCI)
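Protocol summary: plate cells (96-well), add compound at 5 concentrations, incubate 48 h, interpolate endpoints linearly. At the GI50, growth is halved. Definition used: TGI = concentration required for complete inhibition of growth.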

Key:
Experiment in all cases: NCI anticancer screen, dose series, 48 h
EKVX NSCLC = system: EKVX NSCLC
HCC-2998 colon = system: HCC-2998 colon
HT29 colon = system: HT29 colon
MDA-MB-435 = system: MDA-MB-435
NCI-H226 lung = system: NCI-H226 lung
OVCAR-4 ovarian = system: OVCAR-4 ovarian
OVCAR-8 ovarian = system: OVCAR-8 ovarian
SF-295 CNS = system: SF-295 CNS
SK-OV-3 ovarian = system: SK-OV-3 ovarian
SNB-75 CNS = system: SNB-75 CNS

| Structure (SMILES) | GI50 (EKVX NSCLC) | TGI (EKVX NSCLC) | GI50 (HCC-2998 colon) | TGI (HCC-2998 colon) | GI50 (HT29 colon) | TGI (HT29 colon) | GI50 (MDA-MB-435) | TGI (MDA-MB-435) | GI50 (NCI-H226 lung) | TGI (NCI-H226 lung) | GI50 (OVCAR-4 ovarian) | TGI (OVCAR-4 ovarian) | GI50 (OVCAR-8 ovarian) | TGI (OVCAR-8 ovarian) | GI50 (SF-295 CNS) | TGI (SF-295 CNS) | GI50 (SK-OV-3 ovarian) | TGI (SK-OV-3 ovarian) | GI50 (SNB-75 CNS) | TGI (SNB-75 CNS) |
| --- | --- | --- | --- | --- | --- | --- | --- | --- | --- | --- | --- | --- | --- | --- | --- | --- | --- | --- | --- | --- |
| O=C1[C@H](Cc2ccc(O)cc2)N2C(=O)CCN(C(=O)NCc3ccccc3)[C@H]2CN1Cc1cccc2ccccc12 | 3.81 µM | > 100 µM | 3.51 µM | 23.2 µM | 2.85 µM | 19.3 µM | 3.96 µM | 21.4 µM | 1.99 µM | 21.4 µM | 0.781 µM | > 49.9 µM | 0.959 µM | 13.5 µM | 3.22 µM | 17.6 µM | 2.74 µM | 8.14 µM | 0.399 µM | 25.3 µM |
| O=C(CC1(O)C(=O)Nc2c(Cl)cc(Cl)cc21)c1cccc([N+](=O)[O-])c1 (stereo not given) |  | > 100 µM |  | > 70.4 µM |  | > 100 µM |  | 16.3 µM |  | > 77.5 µM |  | 30 µM |  | > 83.9 µM |  | > 100 µM |  | > 100 µM |  | 68.2 µM |
